Experimental data taken from BindingDB's records for doi:10.1021/acs.jmedchem.7b01344 (Metabasis Therapeutics, 2017).

Assays:
[1] = target: Prostaglandin D2 receptor 2 (CRTH2) (Homo sapiens) (UniProt Q9Y5Y4); experiment: Binding affinity to DP2 receptor (unknown origin)
[2] = target: Prostaglandin D2 receptor 2 (CRTH2) (Homo sapiens) (UniProt Q9Y5Y4); experiment: Binding affinity to DP2 receptor (unknown origin) in presence of 10% human serum

Sequence of Prostaglandin D2 receptor 2 (CRTH2) (Homo sapiens) (Q9Y5Y4 whole entry, looked up): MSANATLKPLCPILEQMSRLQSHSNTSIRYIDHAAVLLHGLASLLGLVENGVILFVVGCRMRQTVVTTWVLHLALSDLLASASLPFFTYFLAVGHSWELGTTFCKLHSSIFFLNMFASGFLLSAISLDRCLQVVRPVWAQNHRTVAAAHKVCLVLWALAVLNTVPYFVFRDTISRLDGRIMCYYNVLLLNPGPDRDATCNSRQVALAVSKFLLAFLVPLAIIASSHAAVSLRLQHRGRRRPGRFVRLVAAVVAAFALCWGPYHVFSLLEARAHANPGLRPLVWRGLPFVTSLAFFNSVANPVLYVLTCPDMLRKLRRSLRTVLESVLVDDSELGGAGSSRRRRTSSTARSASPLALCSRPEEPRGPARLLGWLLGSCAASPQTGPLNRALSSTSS

Cc1ccc(Oc2nc3cc(-c4ccc(-c5ccccc5)cc4)c(Cl)cc3[nH]2)cc1C(=O)O
IC50 [1]: 1.8 µM
IC50 [2]: > 86 µM
